Laboratory results: US10597352B1, “Stable alkyl benzidine composition and methods of making and using same” (OneStep Technologies Inc., priority 2019, dated 2020)

Assay: Stability evaluation of alkyl benzidine solutions on storage at a stated temperature (method not described)
Format: physicochemical
Method: In one example, a solution of TMB prepared in polyethylene glycol in accordance with Example 1.0 was evaluated for stability. It was determined that the solution was stable at room temperature (i.e. 22° C.) for a period of at least two years. It was further determined that the solution was stable at 37° C. for a period of at least two months.

## Cc1cc(-c2cc(C)c(NCCCS(=O)(=O)O)c(C)c2)cc(C)c1N [N-(3-sulfopropyl)-3,3′,5,5′-tetramethylbenzidine]
  stability of compositions produced with the tetraalkyl benzidine compound (in words): stable compositions
